Measured values as given in patent US20070219203A1, “Arylalkylamino-substituted quinazoline analogues” (Neurogen Corporation, priority 2004, published 2007).

Each compound was assayed against T1, human capsaicin receptor (Homo sapiens, UniProt Q8NER1) (assay: Calcium mobilization assay, antagonist activity (Example 6)). Conditions: Table I; 50% decrease in fluorescence response of cells expressing human capsaicin receptor exposed to capsaicin.
T1 construct: expressed in transfected cells
Format: cell-based
Method: A cDNA encoding full length human capsaicin receptor (SEQ ID NO:1, 2 or 3 of U.S. Pat. No. 6,482,611) is subcloned in the plasmid pBK-CMV (Stratagene, La Jolla, Calif.) for recombinant expression in mammalian cells.
Human embryonic kidney (HEK293) cells are transfected with the pBK-CMV expression construct encoding the full length human capsaicin receptor using standard methods. The transfected cells are selected for two weeks in media containing G418 (400 μg/ml) to obtain a pool of stably transfected cells. Independent clones are isolated from this pool by limiting dilution to obtain clonal stable cell lines for use in subsequent experiments.
Cells transfected with expression plasmids (as described in Example 4) and thereby expressing human capsaicin receptor are seeded and grown to 70-90% confluency in FALCON black-walled, clear-bottomed 96-well plates (#3904, BECTON-DICKINSON, Franklin Lakes, N.J.). The culture medium is emptied from the 96 well plates and […] calcium sensitive dye (Molecular Probes, Eugene, Oreg.) is added to each well (dye solution: 1 mg […], 440 μL DMSO and 440 μl 20% pluronic acid in DMSO, diluted 1:250 in Krebs-Ringer HEPES (KRH) buffer (25 mM HEPES, 5 mM KCl, 0.96 mM NaH2PO4, 1 mM MgSO4, 2 mM CaCl2, 5 mM glucose, 1 mM probenecid, pH 7.4), 50 μl diluted solution per well). Plates are covered with aluminum foil and incubated at 37° C. for 1-2 hours in an environment containing 5% CO2. After the incubation, the dye is emptied from the plates, and the cells are washed once with KRH buffer, and resuspended in KRH buffer.
To measure the ability of a test compound to agonize or antagonize a calcium mobilization response in cells expressing capsaicin receptors to capsaicin or other vanilloid agonist, the EC50 of the agonist capsaicin is first determined. An additional 20 μl of KRH buffer and 1 μl DMSO is added to each well of cells, prepared as described above. 100 μl capsaicin in KRH buffer is automatically transferred by the FLIPR instrument to each well. Capsaicin-induced calcium mobilization is monitored using either FLUOROSKAN ASCENT (Labsystems; Franklin, Mass.) or FLIPR (fluorometric imaging plate reader system; Molecular Devices, Sunnyvale, Calif.) instruments. Data obtained between 30 and 60 seconds after agonist application are used to generate an 8-point concentration response curve, with final capsaicin concentrations of 1 nM to 3 μM. KALEIDAGRAPH software (Synergy Software, Reading, Pa.) is used to fit the data to the equation: y=a*(1/(1+(b/x)^c)) to determine the 50% excitatory concentration (EC50) for the response. In this equation, y is the maximum fluorescence signal, x is the concentration of the agonist or antagonist (in this case, capsaicin), a is the Emax, b corresponds to the EC50 value and c is the Hill coefficient. Determination of Agonist Activity
Test compounds are dissolved in DMSO, diluted in 20 μl KRH buffer so that the final concentration of test compounds in the assay well is between 1 μM and 5 μM, and added to cells prepared as described above. The 96 well plates containing prepared cells and test compounds are incubated in the dark, at room temperature for 0.5 to 6 hours. It is important that the incubation not continue beyond 6 hours. Just prior to determining the fluorescence response, 100 μl capsaicin in KRH buffer at twice the EC50 concentration determined as described above is automatically added by the FLIPR instrument to each well of the 96 well plate for a final sample volume of 200 μl and a final capsaicin concentration equal to the EC50. The final concentration of test compounds in the assay wells is between 1 μM and 5 μM. […] The concentration of antagonist required to provide a 50% decrease, relative to the response observed in the presence of capsaicin and without antagonist, is the IC50 for the antagonist, and is preferably below 1 micromolar, 100 nanomolar, 10 nanomolar or 1 nanomolar.

T1 sequence (Q8NER1 whole entry): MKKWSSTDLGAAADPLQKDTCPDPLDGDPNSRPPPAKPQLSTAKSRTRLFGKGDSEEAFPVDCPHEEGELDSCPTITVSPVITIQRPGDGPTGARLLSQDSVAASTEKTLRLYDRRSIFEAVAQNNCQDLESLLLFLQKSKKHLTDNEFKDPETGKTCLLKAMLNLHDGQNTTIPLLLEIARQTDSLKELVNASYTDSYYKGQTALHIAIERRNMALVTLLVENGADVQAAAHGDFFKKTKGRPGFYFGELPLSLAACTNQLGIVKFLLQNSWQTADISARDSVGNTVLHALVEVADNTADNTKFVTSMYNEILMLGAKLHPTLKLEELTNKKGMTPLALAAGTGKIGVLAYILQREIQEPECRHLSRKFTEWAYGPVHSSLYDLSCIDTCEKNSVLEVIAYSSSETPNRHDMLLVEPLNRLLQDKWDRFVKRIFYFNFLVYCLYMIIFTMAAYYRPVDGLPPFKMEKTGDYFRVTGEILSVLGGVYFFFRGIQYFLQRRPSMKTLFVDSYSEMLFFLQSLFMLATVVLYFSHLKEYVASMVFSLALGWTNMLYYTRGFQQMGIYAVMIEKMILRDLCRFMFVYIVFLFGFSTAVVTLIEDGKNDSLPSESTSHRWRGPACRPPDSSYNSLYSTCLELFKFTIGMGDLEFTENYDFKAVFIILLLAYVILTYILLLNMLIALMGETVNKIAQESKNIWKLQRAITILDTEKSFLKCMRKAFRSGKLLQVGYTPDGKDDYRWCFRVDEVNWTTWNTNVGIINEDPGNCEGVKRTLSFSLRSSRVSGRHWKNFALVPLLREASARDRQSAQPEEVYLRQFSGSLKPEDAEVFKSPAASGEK

| SMILES | IC50 |
| --- | --- |
| CC(C)COCc1nc(NCCc2ccccc2Cl)c2ccc(-c3ncccc3C(F)(F)F)nc2n1 [Compound 33, N-[2-(2-chlorophenyl)ethyl]-2-(isobutoxymethyl)-7-[3-(trifluoromethyl)pyridin-2-yl]pyrido[2,3-d]pyrimidin-4-amine] | ≤ 1000 nM |
| CC(C)COCc1nc(NCCc2cccc(Cl)c2)c2ccc(-c3ncccc3C(F)(F)F)nc2n1 [Compound 34, N-[2-(3-chlorophenyl)ethyl]-2-(isobutoxymethyl)-7-[3-(trifluoromethyl)pyridin-2-yl]pyrido[2,3-d]pyrimidin-4-amine] | ≤ 1000 nM |
| CC(C)COCc1nc(NCCc2ccc(Cl)cc2)c2ccc(-c3ncccc3C(F)(F)F)nc2n1 [Compound 35, N-[2-(4-chlorophenyl)ethyl]-2-(isobutoxymethyl)-7-[3-(trifluoromethyl)pyridin-2-yl]pyrido[2,3-d]pyrimidin-4-amine] | ≤ 1000 nM |
| CC(C)COCc1nc(NCCc2cccc(F)c2)c2ccc(-c3ncccc3C(F)(F)F)nc2n1 [Compound 36, N-[2-(3-fluorophenyl)ethyl]-2-(isobutoxymethyl)-7-[3-(trifluoromethyl)pyridin-2-yl]pyrido[2,3-d]pyrimidin-4-amine] | ≤ 1000 nM |
| CC(C)COCc1nc(NCCc2ccc(F)cc2)c2ccc(-c3ncccc3C(F)(F)F)nc2n1 [Compound 37, N-[2-(4-fluorophenyl)ethyl]-2-(isobutoxymethyl)-7-[3-(trifluoromethyl)pyridin-2-yl]pyrido[2,3-d]pyrimidin-4-amine] | ≤ 1000 nM |
| CC(C)COCc1nc(NCCc2ccccc2C(F)(F)F)c2ccc(-c3ncccc3C(F)(F)F)nc2n1 [Compound 38, 2-(isobutoxymethyl)-N-{2-[2-(trifluoromethyl)phenyl]ethyl}-7-[3-(trifluoromethyl)pyridin-2-yl]pyrido[2,3-d]pyrimidin-4-amine] | ≤ 1000 nM |
| CC(C)COCc1nc(NCCc2cccc(C(F)(F)F)c2)c2ccc(-c3ncccc3C(F)(F)F)nc2n1 [Compound 39, 2-(isobutoxymethyl)-N-{2-[3-(trifluoromethyl)phenyl]ethYl}-7-[3-(trifluoromethyl)pyridin-2-yl]pyrido[2,3-d]pyrimidin-4-amine] | ≤ 1000 nM |
| CC(C)COCc1nc(NCCc2ccc(C(F)(F)F)cc2)c2ccc(-c3ncccc3C(F)(F)F)nc2n1 [Compound 40, 2-(isobutoxymethyl)-N-{2-[4-(trifluoromethyl)phenyl]ethyl}-7-[3-(trifluoromethyl)pyridin-2-yl]pyrido[2,3-d]pyrimidin-4-amine] | ≤ 1000 nM |
| COc1ccccc1CCNc1nc(COCC(C)C)nc2nc(-c3ncccc3C(F)(F)F)ccc12 [Compound 41, 2-(isobutoxymethyl)-N-[2-(2-methoxyphenyl)ethyl]-7-[3-(trifluoromethyl)pyridin-2-yl]pyrido[2,3-d]pyrimidin-4-amine] | ≤ 1000 nM |
| COc1cccc(CCNc2nc(COCC(C)C)nc3nc(-c4ncccc4C(F)(F)F)ccc23)c1 [Compound 42, 2-(isobutoxymethyl)-N-[2-(3-methoxyphenyl)ethyl]-7-[3-(trifluoromethyl)pyridin-2-yl]pyrido[2,3-d]pyrimidin-4-amine] | ≤ 1000 nM |
| COc1ccc(CCNc2nc(COCC(C)C)nc3nc(-c4ncccc4C(F)(F)F)ccc23)cc1 [Compound 43, 2-(isobutoxymethyl)-N-[2-(4-methoxyphenyl)ethyl]-7-[3-(trifluoromethyl)pyridin-2-yl]pyrido[2,3-d]pyrimidin-4-amine] | ≤ 1000 nM |
| CC(C)COCc1nc(NCCc2ccccc2F)c2ccc(-c3ncccc3Cl)nc2n1 [Compound 44, 7-(3-chloropyridin-2-yl)-N-[2-(2-fluorophenyl)ethyl]-2-(isobutoxymethyl)pyrido[2,3-d]pyrimidin-4-amine] | ≤ 1000 nM |
| CC(C)COCc1nc(NCCc2cccc(F)c2)c2ccc(-c3ncccc3Cl)nc2n1 [Compound 45] | ≤ 1000 nM |
| CC(C)COCc1nc(NCCc2ccc(F)cc2)c2ccc(-c3ncccc3Cl)nc2n1 [Compound 46, 7-(3-chloropyridin-2-yl)-N-[2-(4-fluorophenyl)ethyl]-2-(isobutoxymethyl)pyrido[2,3-d]pyrimidin-4-amine] | ≤ 1000 nM |
| CC(C)COCc1nc(NCCc2ccccc2Cl)c2ccc(-c3ncccc3Cl)nc2n1 [Compound 47, N-[2-(2-chlorophenyl)ethyl]-7-(3-chloropyridin-2-yl)-2-(isobutoxymethyl)pyrido[2,3-d]pyrimidin-4-amine] | ≤ 1000 nM |
| CC(C)COCc1nc(NCCc2cccc(Cl)c2)c2ccc(-c3ncccc3Cl)nc2n1 [Compound 48, N-[2-(3-chlorophenyl)ethyl]-7-(3-chloropyridin-2-yl)-2-(isobutoxymethyl)pyrido[2,3-d]pyrimidin-4-amine] | ≤ 1000 nM |
| CC(C)COCc1nc(NCCc2ccc(Cl)cc2)c2ccc(-c3ncccc3Cl)nc2n1 [Compound 49, N-[2-(4-chlorophenyl)ethyl]-7-(3-chloropyridin-2-yl)-2-(isobutoxymethyl)pyrido[2,3-d]pyrimidin-4-amine] | ≤ 1000 nM |
| CC(C)COCc1nc(NCCc2ccccc2C(F)(F)F)c2ccc(-c3ncccc3Cl)nc2n1 [Compound 50, 7-(3-chloropyridin-2-yl)-2-(isobutoxymethyl)-N-{2-[2-(trifluoromethyl)phenyl]ethyl}pyrido[2,3-d]pyrimidin-4-amine] | ≤ 1000 nM |
| CC(C)COCc1nc(NCCc2cccc(C(F)(F)F)c2)c2ccc(-c3ncccc3Cl)nc2n1 [Compound 51, 7-(3-chloropyridin-2-yl)-2-(isobutoxymethyl)-N-{2-[3-(trifluoromethyl)phenyl]ethyl}pyrido[2,3-d]pyrimidin-4-amine] | ≤ 1000 nM |
| CCOCc1nc(NCCc2ccccc2F)c2ccc(-c3ncccc3Cl)nc2n1 [Compound 52, 7-(3-chloropyridin-2-yl)-n-(ethoxymethyl)-N-[2-(2-fluorophenyl)ethyl]pyrido[2,3-d]pyrimidin-4-amine] | ≤ 1000 nM |
| CCOCc1nc(NCCc2ccc(F)cc2)c2ccc(-c3ncccc3Cl)nc2n1 [Compound 53, 7-(3-chloropyridin-2-yl)-2-(ethoxymethyl)-N-[2-(4-fluorophenyl)ethyl]pyrido[2,3-d]pyrimidin-4-amine] | ≤ 1000 nM |
| CCOCc1nc(NCCc2ccccc2Cl)c2ccc(-c3ncccc3Cl)nc2n1 [Compound 54, N-[2-(2-chlorophenyl)ethyl]-7-(3-chloropyridin-2-yl)-2-(ethoxymethyl)pyrido[2,3-d]pyrimidin-4-amine] | ≤ 1000 nM |
| CCOCc1nc(NCCc2cccc(Cl)c2)c2ccc(-c3ncccc3Cl)nc2n1 [Compound 55, N-[2-(3-chlorophenyl)ethyl]-7-(3-chloropyridin-2-yl)-2-(ethoxymethyl)pyrido[2,3-d]pyrimidin-4-amine] | ≤ 1000 nM |
| CCOCc1nc(NCCc2ccccc2C(F)(F)F)c2ccc(-c3ncccc3Cl)nc2n1 [Compound 56, 7-(3-chloropyridin-2-yl)-2-(ethoxymethyl)-N-{2-[2-(trifluoromethyl)phenyl]ethyl}pyrido [2,3-d]pyrimidin-4-amine] | ≤ 1000 nM |
| CCOCc1nc(NCCc2cccc(OC)c2)c2ccc(-c3ncccc3Cl)nc2n1 [Compound 57, 7-(3-chloropyridin-2-yl)-2-(ethoxymethyl)-N-[2-(3-methoxyphenyl)ethyl]pyrido[2,3-d]pyrimidin-4-amine] | ≤ 1000 nM |
| Cc1ccccc1CCNc1nc(COCC(C)C)nc2nc(-c3ncccc3Cl)ccc12 [Compound 58, 7-(3-chloropyridin-2-yl)-2-(isobutoxymethyl)-N-[2-(2-methylphenyl)ethyl]pyrido[2,3-d]pyrimidin-4-amine] | ≤ 1000 nM |
